Here are results for 6 compounds from ChEMBL document CHEMBL5338708, “Bis-chalcone polyphenols with potential preventive and therapeutic effects on PD: Design, synthesis and in vitro disaggregation activity against α-synuclein oligomers and fibrils” (Eur J Med Chem, 2022).

The structures appear in SMILES notation.

Data set [1] in a line: Apparent permeability across basolateral to apical side in MDCKII-MDR1 cells at 10 uM by LC-MS/MS analysis. The following applies: dog, MDCK-MDR1. It counts as ADME, cell-based, Canis lupus familiaris.
Data set [2] in a line: Apparent permeability across apical to basolateral side in MDCKII-MDR1 cells at 10 uM by LC-MS/MS analysis. It counts as ADME, cell-based, Canis lupus familiaris. As to conditions: dog, MDCK-MDR1.
The target in another data set is Alpha-synuclein (Homo sapiens, UniProt P37840). Nature of the data set: Inhibition of recombinant human Alpha-synuclein aggregation expressed in Escherichia coli incubated for 72 hrs by ThT fluorescence assay.
The nature of data set [3]: Efflux ratio of apparent permeability from basolateral to apical side over apical to basolateral side in […] cells at 10 uM by LC-MS/MS analysis. As to conditions: dog, MDCK-MDR1. It counts as ADME, cell-based, Canis lupus familiaris.

What is called Papp B→A is how fast a substance crosses the layer from the basolateral side. For orientation: Papp A→B means the apparent permeability from the apical to the basolateral side of a cell layer. `COc1cc(/C=C/C(=O)c2ccc(O)c(O)c2)c(OC)cc1/C=C/C(=O)c1ccc(O)c(O)c1`: the Papp B→A at 10 µM in data set [1] is 96 ×10⁻⁶ cm/s. In data set [2], the Papp A→B at 10 µM came to 13.5 ×10⁻⁶ cm/s.

The IC50 is the midpoint of a concentration-inhibition curve. In the case of `O=C(O[C@@H]1Cc2c(O)cc(O)cc2O[C@H]1c1cc(O)c(O)c(O)c1)c1cc(O)c(O)c(O)c1` [GALLOCATECHIN GALLATE], the half-inhibitory concentration (IC50) at Alpha-synuclein turned out to be 1060 nM.

By efflux ratio is commonly meant the permeability from basolateral to apical divided by that in the opposite direction, in the common usage. For `CC(C)NCC(O)COc1cccc2ccccc12` (configuration not stated) [PROPRANOLOL], in data set [1], the apparent permeability from basolateral to apical (Papp B→A) at 10 µM turned out to be 97 ×10⁻⁶ cm/s. Further, in data set [3], the efflux ratio at 10 µM worked out at 2.66. For the same compound, in data set [2], the apical-to-basolateral permeability (Papp A→B) at 10 µM was determined as 36.5 ×10⁻⁶ cm/s.

With `COc1cc(/C=C/C(=O)c2cc(O)cc(O)c2)c(OC)cc1/C=C/C(=O)c1cc(O)cc(O)c1`, in data set [1], the basolateral-to-apical permeability (Papp B→A) at 10 µM amounted to 93.2 ×10⁻⁶ cm/s. In data set [2], the Papp A→B at 10 µM was 7.71 ×10⁻⁶ cm/s.

Regarding `O=C(/C=C/c1ccc(/C=C/C(=O)c2ccc(O)c(F)c2)cc1)c1ccc(O)c(F)c1`, the Papp B→A at 10 µM in data set [1] turned out to be 95.6 ×10⁻⁶ cm/s. The apical-to-basolateral permeability (Papp A→B) at 10 µM in data set [2] was found to be 11.4 ×10⁻⁶ cm/s.

In the case of `O=C(/C=C/c1ccc(/C=C/C(=O)c2ccc(O)c(O)c2)cc1)c1ccc(O)c(O)c1`, the apparent permeability from basolateral to apical (Papp B→A) at 10 µM in data set [1] was determined as 74.7 ×10⁻⁶ cm/s. Besides, in data set [2], the Papp A→B at 10 µM was found to be 16.2 ×10⁻⁶ cm/s.
